Values joined by “and” are separate entries in the source; they are usually repeats but may differ in a detail not shown here. Equal values may be shown once. Read-outs that look alike come from different tables or passages of the source. Bridge positions count the residues as written; N and C are the ends. Square brackets hold non-standard residues; d marks the D form. Peptide text beside a SMILES is read from it. * marks the point of attachment. X1 = C=CCN1CC[C@]23c4c5ccc(O)c4O[C@H]2[C@H](N*)CC[C@@]3(O)[C@H]1C5
Tests used:
[1] = target: T1, mouse KOR (Mus musculus, UniProt P33534); experiment: cell-based; set-up: expressed in transfected cells; settings: for Emax: HEK-293T, read-out: Emax cAMP assay; for EC50: read-out: EC50 cAMP assay
[2] = target: T1, mouse KOR; experiment: biochemical; type: binding; set-up: expressed in transfected cells; settings: for specific [3H]DPN binding, normalized to 100%: replicates; for Ki: [3H]DPN 1 nM, read-out: Ki
[3] = target: T2, human MOR (Homo sapiens, UniProt P35372); experiment: [35S]GTPγS binding assay, CHO membranes; type: biochemical; settings: relative to DAMGO
T2 construct: expressed in transfected cells

[4] = target: T3, mouse KOR, Gαi2 (Mus musculus, UniProt P33534); experiment: TRUPATH BRET G protein assay, Gαi2; type: cell-based
T3 construct: expressed in transfected cells; host or cells: HEK293T (ATCC, CRL-3216), transient

[5] = target: human KOR (Homo sapiens, UniProt P41145); experiment: cell-based; set-up: expressed in transfected cells; host or cells: HEK293, transient
[6] = target: T4, human KOR D138A (Homo sapiens, UniProt P41145, D138A); experiment: cAMP inhibition assay normalized to salvinorin A; type: cell-based
T4 construct: expressed in transfected cells

[7] = target: T5, human KOR E297A (Homo sapiens, UniProt P41145, E297A); type: cell-based; settings: KOR(E297A), Log [drug], individual replicates
T5 construct: FLAG; expressed in transfected cells; host or cells: HEK293T

[8] = target: T5, human KOR E297A; experiment: BRET β-arrestin-2 biosensor assay; type: cell-based; settings: KOR(E297A), Log [drug], individual replicates
[9] = target: T6, human KOR L309A (Homo sapiens, UniProt P41145, L309A); type: cell-based; settings: KOR(L309A), Log [drug], individual replicates
T6 construct: FLAG; expressed in transfected cells; host or cells: HEK293T

[10] = target: T7, human KOR E209A (Homo sapiens, UniProt P41145, E209A); type: cell-based; settings: KOR(E209A), Log [drug], individual replicates
T7 construct: FLAG; expressed in transfected cells; host or cells: HEK293 / HEK293T, transient
T7 sequence (P41145 whole entry E209A): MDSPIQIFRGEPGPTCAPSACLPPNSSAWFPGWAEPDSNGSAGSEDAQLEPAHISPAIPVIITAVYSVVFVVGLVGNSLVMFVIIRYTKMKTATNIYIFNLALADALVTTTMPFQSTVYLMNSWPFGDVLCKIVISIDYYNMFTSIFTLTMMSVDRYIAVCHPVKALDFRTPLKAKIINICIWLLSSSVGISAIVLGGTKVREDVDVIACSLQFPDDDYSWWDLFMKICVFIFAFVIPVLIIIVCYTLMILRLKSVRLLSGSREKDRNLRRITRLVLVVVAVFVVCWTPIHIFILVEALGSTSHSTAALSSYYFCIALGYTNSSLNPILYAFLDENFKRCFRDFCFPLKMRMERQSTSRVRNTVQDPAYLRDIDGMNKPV

T6 sequence (P41145 whole entry L309A): as the sequence (P41145 whole entry E209A) above, with A209E, L309A counted along it
T5 sequence (P41145 whole entry E297A): as the sequence (P41145 whole entry E209A) above, with A209E, E297A counted along it
T4 sequence (P41145 whole entry D138A): as the sequence (P41145 whole entry E209A) above, with D138A, A209E counted along it
T1 sequence (P33534 whole entry): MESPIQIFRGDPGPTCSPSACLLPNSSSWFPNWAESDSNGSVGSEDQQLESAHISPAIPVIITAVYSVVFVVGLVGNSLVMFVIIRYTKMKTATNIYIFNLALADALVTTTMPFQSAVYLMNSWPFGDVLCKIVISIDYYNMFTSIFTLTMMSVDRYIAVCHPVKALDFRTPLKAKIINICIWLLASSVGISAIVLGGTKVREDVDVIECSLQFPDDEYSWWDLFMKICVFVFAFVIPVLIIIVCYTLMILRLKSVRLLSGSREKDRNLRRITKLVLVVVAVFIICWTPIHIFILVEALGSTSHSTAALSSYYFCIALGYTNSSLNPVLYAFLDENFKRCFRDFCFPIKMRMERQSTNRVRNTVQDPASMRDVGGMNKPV
T3 sequence (P33534 whole entry): as above
human KOR, sequence (P41145 whole entry): as the sequence (P41145 whole entry E209A) above, with A209E counted along it
T2 sequence (P35372 whole entry): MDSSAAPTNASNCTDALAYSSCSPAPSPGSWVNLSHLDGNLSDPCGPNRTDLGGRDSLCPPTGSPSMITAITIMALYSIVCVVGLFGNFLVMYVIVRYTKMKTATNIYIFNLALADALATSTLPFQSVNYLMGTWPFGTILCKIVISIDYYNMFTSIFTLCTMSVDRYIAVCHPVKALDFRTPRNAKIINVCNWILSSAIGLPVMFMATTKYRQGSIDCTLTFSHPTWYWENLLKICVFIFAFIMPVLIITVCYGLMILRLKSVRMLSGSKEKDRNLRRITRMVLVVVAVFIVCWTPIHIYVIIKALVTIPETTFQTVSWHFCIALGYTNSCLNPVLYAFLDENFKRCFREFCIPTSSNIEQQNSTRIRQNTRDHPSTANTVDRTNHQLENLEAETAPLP

Molecule: C=CCN1CC[C@]23c4c5ccc(O)c4O[C@H]2[C@H](NC(=O)[C@@H](Cc2ccccc2)NC(=O)[C@H](CO)NC(=O)[C@@H]2CSCC(=O)N[C@H]([C@H](C)O)C(=O)N[C@@H](CC(N)=O)C(=O)N[C@H](CCC(=O)O)C(=O)N[C@H](CO)C(=O)N[C@H](CC(C)C)C(=O)N2)CC[C@@]3(O)[C@H]1C5 [DNCP-β-NalA(2)] ({CH2CO}-[dT]N[dE][dS][dL]CS[dF]-X1; thioether N-6)
- Emax [1]: 89 ± 2%
- EC50 [1]: 0.0075 µM
- specific [3H]DPN binding, normalized to 100% ([2]; Log [ligand] (M) -5): 0.2531 and 1.3817 and 8.417
- specific [3H]DPN binding, normalized to 100% ([2]; Log [ligand] (M) -5.5): 5.254 and 5.706 and 15.2738
- specific [3H]DPN binding, normalized to 100% ([2]; Log [ligand] (M) -6): 8.812 and 8.467 and 22.3516
- specific [3H]DPN binding, normalized to 100% ([2]; Log [ligand] (M) -6.5): 20.0364 and 16.1798 and 28.5928
- specific [3H]DPN binding, normalized to 100% ([2]; Log [ligand] (M) -7): 30.6965 and 29.2448 and 46.3656
- specific [3H]DPN binding, normalized to 100% ([2]; Log [ligand] (M) -7.5): 73.9679 and 58.4159 and 82.1752
- specific [3H]DPN binding, normalized to 100% ([2]; Log [ligand] (M) -8): 84.0925 and 77.2121 and 90.6295
- specific [3H]DPN binding, normalized to 100% ([2]; Log [ligand] (M) -8.5): 94.004 and 85.6847 and 98.8664
- specific [3H]DPN binding, normalized to 100% ([2]; Log [ligand] (M) -9): 85.0018 and 88.1692 and 96.9444
- specific [3H]DPN binding, normalized to 100% ([2]; Log [ligand] (M) -9.5): 100
- Ki [2]: 0.031 µM

Molecule: C=CCN1CC[C@]23c4c5ccc(O)c4O[C@H]2[C@H](NC(=O)[C@@H](Cc2ccccc2)NC(=O)[C@@H](NC(=O)[C@@H]2CSCC(=O)N[C@@H](CC(=O)O)C(=O)N[C@@H](C)C(=O)N[C@H](Cc4ccc(O)cc4)C(=O)N[C@H](C)C(=O)N[C@@H](C(C)C)C(=O)N2)[C@@H](C)O)CC[C@@]3(O)[C@H]1C5 [DNCP-β-NalA(3)] ({CH2CO}-DA[dY][dA]VCT[dF]-X1; thioether N-6)
- Emax [1]: 99 ± 1%
- EC50 [1]: 0.014 µM
- specific [3H]DPN binding, normalized to 100% ([2]; Log [ligand] (M) -5): 4.711 and 4.268 and 3.134
- specific [3H]DPN binding, normalized to 100% ([2]; Log [ligand] (M) -5.5): 9.049 and 8.477 and 7.931
- specific [3H]DPN binding, normalized to 100% ([2]; Log [ligand] (M) -6): 13.9379 and 12.8705 and 12.6183
- specific [3H]DPN binding, normalized to 100% ([2]; Log [ligand] (M) -6.5): 21.3908 and 20.9203 and 21.0807
- specific [3H]DPN binding, normalized to 100% ([2]; Log [ligand] (M) -7): 41.59 and 36.2221 and 28.4597
- specific [3H]DPN binding, normalized to 100% ([2]; Log [ligand] (M) -7.5): 75.8729 and 62.6776 and 54.9604
- specific [3H]DPN binding, normalized to 100% ([2]; Log [ligand] (M) -8): 98.7879 and 86.9193 and 89.7517
- specific [3H]DPN binding, normalized to 100% ([2]; Log [ligand] (M) -8.5): 102.113 and 95.9134 and 97.9933
- specific [3H]DPN binding, normalized to 100% ([2]; Log [ligand] (M) -9): 101.53 and 101.749 and 103.107
- specific [3H]DPN binding, normalized to 100% ([2]; Log [ligand] (M) -9.5): 100
- Ki [2]: 0.024 µM

Molecule: C=CCN1CC[C@]23c4c5ccc(O)c4O[C@H]2[C@H](NC(=O)[C@@H](Cc2ccccc2)NC(=O)[C@H](CO)NC(=O)[C@@H]2CSCC(=O)N[C@H](CO)C(=O)N[C@H](CC(=O)O)C(=O)N[C@H](Cc4c[nH]cn4)C(=O)N[C@@H](C)C(=O)N[C@@H](C)C(=O)N2)CC[C@@]3(O)[C@H]1C5 [DNCP-β-NalA(4)]
- Emax [1]: 101 ± 2%
- EC50 [1]: 0.001 µM
- specific [3H]DPN binding, normalized to 100% ([2]; Log [ligand] (M) -5): 7 and 5.59 and 5.4127
- specific [3H]DPN binding, normalized to 100% ([2]; Log [ligand] (M) -5.5): 12.4013 and 7.976 and 9.019
- specific [3H]DPN binding, normalized to 100% ([2]; Log [ligand] (M) -6): 12.817 and 12.3329 and 11.7119
- specific [3H]DPN binding, normalized to 100% ([2]; Log [ligand] (M) -6.5): 19.572 and 16.0481 and 16.106
- specific [3H]DPN binding, normalized to 100% ([2]; Log [ligand] (M) -7): 34.7156 and 27.5243 and 29.2083
- specific [3H]DPN binding, normalized to 100% ([2]; Log [ligand] (M) -7.5): 62.865 and 48.8054 and 54.3277
- specific [3H]DPN binding, normalized to 100% ([2]; Log [ligand] (M) -8): 85.7392 and 63.6235 and 68.5184
- specific [3H]DPN binding, normalized to 100% ([2]; Log [ligand] (M) -8.5): 110.569 and 79.1117 and 88.8606
- specific [3H]DPN binding, normalized to 100% ([2]; Log [ligand] (M) -9): 116.546 and 94.2824 and 100.104
- specific [3H]DPN binding, normalized to 100% ([2]; Log [ligand] (M) -9.5): 100

Molecule: DAMGO
- Emax (%) MOR [3]: 100%

Molecule: CC(C)=CCN1CCC2(C)c3cc(O)ccc3CC1C2C (stereo not shown) [Pentazocine, pentazocine]
- Gαi2, normalized response (single replicate values) ([4]; Log [ligand] (M) -5): 63.0631 and 33.772 and 78.2944 and 66.7992 and -8.535 and 43.2571 and 15.0067 and 36.1153
- Gαi2, normalized response (single replicate values) ([4]; Log [ligand] (M) -6): 81.8094 and 43.1452 and 67.7496 and 22.5401 and 66.7992 and 32.8986 (2×) and 41.9735
- Gαi2, normalized response (single replicate values) ([4]; Log [ligand] (M) -7): 33.772 (2×) and 29.0855 and 9.357 and 40.4321 and 39.4904 and 59.2657 and 49.0034
- Gαi2, normalized response (single replicate values) ([4]; Log [ligand] (M) -8): 36.1153 and 16.1974 and 29.0855 and -23.6023 and 39.4904 and 26.3069 and 33.8403 and 44.3168
- Gαi2, normalized response (single replicate values) ([4]; Log [ligand] (M) -9): -10.7504 and 16.1974 and 32.6004 and -17.0105 and 12.1816 and 27.2485 and 41.3738 and 15.0258
- Gαi2, normalized response (single replicate values) ([4]; Log [ligand] (M) -10): -1.377 and -15.4369 and -0.06023 (2×) and -7.594 and -5.71 and -13.0937
- Gαi2, normalized response (single replicate values) ([4]; Log [ligand] (M) -11): -3.721 and -2.549 and 15.0258 and 1.823 and -26.4273 and -45.2609 and 40.4321 and -15.4369
- Gαi2, normalized response (single replicate values) ([4]; Log [ligand] (M) -12): 20.884 and 5.653 and -14.2653 and 5.59 and 13.1233 and -22.6606 and 37.607 and -1.377
- Gαi2 (Figure 3j) ([4]; source data of Figure 3j, U50,488 about 100): 42.2346
- EC50 [5]: 1.01 µM
- β-arrestin-2 (Figure 3j) [5]: 38
- Emax ([5]; HEK293, read-out: Emax β-arrestin-1 recruitment): 38 ± 24%

Molecule: C=CCN1CC[C@]23c4c5ccc(O)c4O[C@H]2[C@H](NC(=O)[C@@H](Cc2ccccc2)NC(=O)[C@@H](NC(=O)[C@@H]2CSCC(=O)N[C@@H](Cc4ccc(O)cc4)C(=O)N[C@@H](C)C(=O)N[C@H](Cc4ccc(O)cc4)C(=O)N[C@@H]([C@@H](C)O)C(=O)N[C@@H]([C@@H](C)O)C(=O)N2)[C@@H](C)O)CC[C@@]3(O)[C@H]1C5 [DNCP-βNalA(1)] ({CH2CO}-YA[dY]TTCT[dF]-X1; thioether N-6)
- response at D138A, Figure S26 ([6]; Log [ligand] (M) -5): 110.03 and 108.68 and 121.152 and 120.937 and 117.964 and 108.941 and 117.457
- response at D138A, Figure S26 ([6]; Log [ligand] (M) -6): 96.1567 and 103.986 and 100.687 and 108.287 and 104.111 and 103.774 and 93.2795 and 106.739
- response at D138A, Figure S26 ([6]; Log [ligand] (M) -7): 95.0352 and 99.2926 and 97.756 and 110.621 and 103.099 and 111.681 and 84.8048 and 93.7365
- response at D138A, Figure S26 ([6]; Log [ligand] (M) -8): 92.5638 and 91.2347 and 98.8959 and 103.021 and 118.301 and 103.099 and 100.466 and 95.1074
- response at D138A, Figure S26 ([6]; Log [ligand] (M) -9): 68.4109 and 66.6248 and 86.0309 and 72.0259 and 98.5019 and 110.7 and 66.4429 and 85.6772
- Gi1-activation ([7]; M = -5): 95.0144
- Gi1-activation ([7]; M = -6): 93.9606 and 93.3336 and 93.3709
- Gi1-activation ([7]; M = -7): 92.7066 and 94.3563
- Gi1-activation ([7]; M = -8): 92.7066 and 93.9606 and 93.6983
- βarrestin2-reruitment ([8]; M = -5): 64.952 and 70.3776 and 70.3029
- βarrestin2-reruitment ([8]; M = -6): 64.952 (2×) and 65.8365 and 61.2954 and 65.7763 and 64.7423
- βarrestin2-reruitment ([8]; M = -7): 57.4606 and 53.3486 and 51.3006 and 53.3686 and 55.3202
- βarrestin2-reruitment ([8]; M = -8): 54.25 and 56.7544 and 54.4026 and 55.3202
- βarrestin2-reruitment ([8]; M = -9): 42.4779 and 34.0491 and 29.508 and 29.5871 and 25.4512 and 32.8461
- βarrestin2-reruitment ([8]; M = -10): 4.532 and 6.8027 and 4.772
- Gi1-activation ([9]; M = -5): 98.4884 and 94.3563
- Gi1-activation ([9]; M = -6): 92.9882 and 93.5382 and 87.9287
- Gi1-activation ([9]; M = -7): 91.3288 and 89.81 and 94.9619
- Gi1-activation ([9]; M = -8): 94.9619 and 94.0882
- Gi1-activation ([10]; M = -6): 95.0321
- Gi1-activation ([10]; M = -7): 98.4538 and 95.0321 and 92.9731 (2×)
- Gi1-activation ([10]; M = -9): 93.8915 and 90.4927

— article PMC10698194 (Nature Communications, 2023)
